Read-outs that look alike come from different tables or passages of the source. *1 amine or outer side, *2 acyl side, *3 side chain or, on linkers, in order; H or OH if unused. Where a SMILES comes first, the peptide text is derived from it. [ ]: non-standard residue; d: D form. The star is where a group is joined. GluureaLys(ε-3-ClBenzyl) = O=C(O)CC[C@H](NC(=O)N[C@@H](CCCCN(Cc1cccc(Cl)c1)*)C(=O)O)C(=O)O; X3 = CC1(C)C(=O)N(c2ccc(C#N)c(C(F)(F)F)c2)C(=S)N1c1ccc(C(=O)*)c(F)c1; Dolaproine = CO[C@@H]([C@@H]1CCCN1)[C@@H](C)C(=O)O; Dil = CC[C@H](C)[C@H](NC)[C@@H](CC(=O)O)OC; X2 = O=C(CCCc1cn(CCCN[*:1])nn1)[*:2]; PABC = O=C(OCc1ccc(N[*:1])cc1)[*:2]; X1 = C[C@@H](N*)[C@@H](O)c1ccccc1; Cit = NC(=O)NCCC[C@H](N)C(=O)O; Suc = O=C(CCC(=O)[*:2])[*:1]; NMeV = CN[C@H](C(=O)O)C(C)C; Ahx = NCCCCCC(=O)O
How the values were obtained:
[1] = system: PC-3 prostate adenocarcinoma xenograft; details: PC-3 xenograft; for tumor volume V±m: i.v. triple injection, single dose 132.3 nM/kg; for Tumor growth inhibition: i.v. 132.3 nM/kg three times; for TGI, did not exceed: i.v. 132.3 nM/kg three times at five-day intervals, male Balb/c nude mice
Procedure: (§1) We carried out in vivo studies of the efficacy of the obtained bimodal conjugates. […] Also, conjugate I (Figure 5) was used as a reference compound. An isotonic (0.9%) sodium chloride solution was used as a negative control. Studies were carried out in xenograft models of 22Rv1 human prostate carcinoma and PC-3 prostate adenocarcinoma in immunodeficient Balb/c nude mice (male).
(§2) Two cell lines were used: human prostate carcinoma 22Rv1 and prostate adenocarcinoma PC-3 (ATCC collection). Cells were cultured in 75 cm^2 vials (Costar, Washington, DC, USA) in RPMI-1640 medium (PanEco, Russia) with the addition of 2 mM L-glutamine (PanEco, Russia) and 10% fetal calf serum (HyClone, Logan, UT, USA) under standard conditions of cultivation (in a humidified atmosphere at 37 °C and 5% CO2). Cells of 6–10 passages were used to inoculate the animals. Cell suspension was prepared with a concentration of 5 × 10^6 cells in 0.05 mL of the 22Rv1 medium and in 0.1 mL of the PC-3 medium. 22Rv1 cells were inoculated into animals in Matrigel (BD Matrigel Basement Membrane Matrix, BD Biosciences, San Jose, CA, USA). Manipulations with Matrigel were performed on a refrigerated plate using precooled materials, tubes and instrumentation. For animal administration, 50 μL of the cell suspension (5 × 10^6 cells) was transferred to a chilled tube containing 50 μL of Matrigel; after mixing, the cellular material (final volume of 100 μL) was injected subcutaneously into the groin area of the animal. To obtain subcutaneous xenograft PC-3, a 5 × 10^6 suspension of tumor cells was inoculated subcutaneously into the inguinal cavity of male mice in a volume of 0.1 mL.
(§3) To study the antitumor efficacy, conjugates were administered intravenously at a dose of 132.3 nM/kg to tumor-bearing mice three times at five-day intervals; administration was started 7−8 days after cell inoculation, and the tumor size was 70−90 mm^3. As a control substance, 0.9% sodium chloride solution was used. Experimental groups included five animals each. […] The mixture was dissolved in DMSO (5% of final solution) and diluted with hemodesum (30% low-molecular-weight polyvinylpyrrolidone (Mw = 8000 ± 200) saline infusion solution). The presence of tumors and their sizes, as well as the body weights of the mice, were recorded every five days during the observation of the animals. The antitumor effect was assessed by comparing the tumor volumes in the experimental and control groups as well as the amount of tumor growth inhibition (TGI, %).
(§4) Tumor volume was calculated using Formula (1):V = d1 × d2 × d3 × 0.52(1) where d1, d2 and d3 are the three mutually perpendicular dimensions of the tumor. […]
(§5) 3.2.1. In vivo evaluation of antitumor efficacy […]
(§6) intravenously at a dose of 132.3 nM/kg to tumor-bearing mice three times at 5-day intervals, the administration was started 7-8 days after cell inoculation to animals, tumor size was 70-90 mm3.
(§7) A 0.9% sodium chloride solution was used as a control substance. The experimental groups […]
(§8) The presence of tumor masses and their size, as well as the body weight of the mice, were recorded every 5 days during observation. In accordance with humane principles, animals were euthanized by placing the mice in a CO2 inhalation chamber (ZOONLAB GmbH, Germany).

[2] = system: 22Rv1 human prostate carcinoma xenograft; details: 22Rv1 xenograft; for tumor volume V±m: i.v. triple injection, single dose 132.3 nM/kg; for Tumor growth inhibition: i.v. 132.3 nM/kg three times
Procedure: as §1, §2, §3, §4, §5, §6, §7, §8

[3] = Body weight, general condition and mortality in the antitumor efficacy study; details: i.v. 132.3 nM/kg x3
Procedure: Animal body weight data are presented in Table S2 in the electronic supplementary materials.
as §3, with “%). […]” for “%).”
as §5, §6, §7, §8
Conjugate Method of injection Dose Number of animals 22Rv1 PC-3 […]
3.4. In vivo Efficacy Evaluation
Days after tumor implantation / mass± error, g
Conjugate 7 day 12 day 17 day […]
injection) injection) injection)
Human prostate carcinoma 22Rv1
Human prostate adenocarcinoma PC-3
Table S3. Tumor growth dynamics of 22Rv1 and PC-3 in mice with intravenous triple injection of […]
ate Days after tumor implantation / V±m, mm3

[4] = 7 day after tumor implantation (1st injection)
[5] = 12 day after tumor implantation (2nd injection)
[6] = 17 day after tumor implantation (3rd injection)
[7] = 22 day after tumor implantation
[8] = 27 day after tumor implantation
[9] = 33 day after tumor implantation
[10] = 37 day after tumor implantation
[11] = days after the start of treatment: 1
[12] = days after the start of treatment: 5
[13] = days after the start of treatment: 10
[14] = days after the start of treatment: 16
[15] = days after the start of treatment: 20
[16] = 22Rv1 xenograft mice, 7 day after tumor implantation (1st injection)
[17] = 22Rv1 xenograft mice, 12 day after tumor implantation (2nd injection)
[18] = 22Rv1 xenograft mice, 17 day after tumor implantation (3rd injection)
[19] = 22Rv1 xenograft mice, 22 day after tumor implantation
[20] = 22Rv1 xenograft mice, 27 day after tumor implantation
[21] = 22Rv1 xenograft mice, 33 day after tumor implantation
[22] = 22Rv1 xenograft mice, 37 day after tumor implantation
[23] = PC-3 xenograft mice, 7 day after tumor implantation (1st injection)
[24] = PC-3 xenograft mice, 12 day after tumor implantation (2nd injection)
[25] = PC-3 xenograft mice, 17 day after tumor implantation (3rd injection)
[26] = PC-3 xenograft mice, 22 day after tumor implantation
[27] = PC-3 xenograft mice, 27 day after tumor implantation
[28] = PC-3 xenograft mice, 33 day after tumor implantation
[29] = PC-3 xenograft mice, 37 day after tumor implantation

SMILES	tumor volume V±m [1, 4]	tumor volume V±m [1, 5]	tumor volume V±m [1, 8]	tumor volume V±m [1, 9]	tumor volume V±m [1, 10]	Tumor growth inhibition [1, 11]	Tumor growth inhibition [1, 12]	Tumor growth inhibition [1, 13]	Tumor growth inhibition [1, 14]	Tumor growth inhibition [1, 15]	TGI, did not exceed [1]	tumor volume V±m [2, 4]	tumor volume V±m [2, 5]	tumor volume V±m [2, 6]	tumor volume V±m [2, 7]	tumor volume V±m [2, 9]	tumor volume V±m [2, 10]	Tumor growth inhibition [2, 11]	Tumor growth inhibition [2, 12]	Tumor growth inhibition [2, 13]	other results
CC[C@H](C)[C@@H]([C@@H](CC(=O)N1CCC[C@H]1[C@H](OC)[C@@H](C)C(=O)N[C@H](C)[C@@H](O)c1ccccc1)OC)N(C)C(=O)[C@@H](NC(=O)[C@@H](NC)C(C)C)C(C)C [MMAE, Monomethyl Auristatin E, reference compound] (H-[NMeV]V[Dil][Dolaproine]-X1)	85.9±8.7 mm3	117.9 mm3	592.6 mm3	1014.3 mm3	1679.9 mm3	29.8%	32.1%	29.5%	25.4%	38.4%	≤ 38.4%	73.7±14.3 mm3	93.6±5.7 mm3	125.3 mm3	211.7 mm3	749.3 mm3	1402.3 mm3	41.5%	60.1%	64.7%	tumor volume V±m [1, 6]: 211.3 mm3; tumor volume V±m [1, 7]: 330.9 mm3; tumor volume V±m [2, 8]: 388.2 mm3; Tumor growth inhibition [2, 14]: 63.0%; Tumor growth inhibition [2, 15]: 51.0%; body weight, mass ± error [3, 16]: 24.0 ± 1.3 g; body weight, mass ± error [3, 17]: 23.7 ± 1.3 g; body weight, mass ± error [3, 18]: 23.4 ± 1.3 g; body weight, mass ± error [3, 19]: 23.5 ± 1.3 g; body weight, mass ± error [3, 20]: 23.8 ± 1.3 g; body weight, mass ± error [3, 21]: 24.0 ± 1.3 g; body weight, mass ± error [3, 22]: 24.2 ± 1.4 g; body weight, mass ± error [3, 23]: 22.4 ± 1.2 g; body weight, mass ± error [3, 24]: 22.7 ± 1.5 g; body weight, mass ± error [3, 25]: 22.4 ± 1.4 g; body weight, mass ± error [3, 26]: 23.0 ± 1.4 g; body weight, mass ± error [3, 27]: 23.1 ± 1.3 g; body weight, mass ± error [3, 28]: 23.2 ± 1.2 g; body weight, mass ± error [3, 29]: 23.3 ± 1.2 g
CC[C@H](C)[C@@H]([C@@H](CC(=O)N1CCC[C@H]1[C@H](OC)[C@@H](C)C(=O)N[C@H](C)[C@@H](O)c1ccccc1)OC)N(C)C(=O)[C@@H](NC(=O)[C@H](C(C)C)N(C)C(=O)OCc1ccc(NC(=O)[C@H](CCCNC(N)=O)NC(=O)[C@@H](NC(=O)CCCc2cn(CCCNC(=O)[C@H](CCCCNC(=O)c3ccc(N4C(=S)N(c5ccc(C#N)c(C(F)(F)F)c5)C(=O)C4(C)C)cc3F)NC(=O)[C@H](Cc3ccc(O)cc3)NC(=O)[C@H](Cc3ccccc3)NC(=O)CCC(=O)NCCCCCC(=O)N(CCCC[C@H](NC(=O)N[C@@H](CCC(=O)O)C(=O)O)C(=O)O)Cc3cccc(Cl)c3)nn2)C(C)C)cc1)C(C)C [compound 15] ({GluureaLys(ε-3-ClBenzyl)-Ahx-Suc}-FYK(X3)[X2]V[Cit][PABC][NMeV]V[Dil][Dolaproine]-X1)	83.1±6.8 mm3	117.6 mm3	534.3 mm3	819.8 mm3	1318.4 mm3	20.5%	18.5%	36.5%	39.7%	51.7%	≤ 51.7%	73.3±8.8 mm3	64.7±15.3 mm3	76.1±46.5 mm3	171.6 mm3	650.1 mm3	988.7 mm3	64.5%	67.6%	71.3%	Tumor growth inhibition [2, 14]: 67.9%; Tumor growth inhibition [2, 15]: 65.4%; body weight, mass ± error [3, 16]: 25.2 ± 1.2 g; body weight, mass ± error [3, 17]: 25.0 ± 1.2 g; body weight, mass ± error [3, 18]: 25.0 ± 1.2 g; body weight, mass ± error [3, 19]: 25.2 ± 1.3 g; body weight, mass ± error [3, 20]: 25.1 ± 1.3 g; body weight, mass ± error [3, 21]: 25.2 ± 1.3 g; body weight, mass ± error [3, 22]: 25.5 ± 1.5 g; body weight, mass ± error [3, 23]: 23.9 ± 2.1 g; body weight, mass ± error [3, 24]: 23.8 ± 2.1 g; body weight, mass ± error [3, 25]: 24.0 ± 2.2 g; body weight, mass ± error [3, 26]: 24.4 ± 2.3 g; body weight, mass ± error [3, 27]: 24.8 ± 2.1 g; body weight, mass ± error [3, 28]: 24.9 ± 1.8 g; body weight, mass ± error [3, 29]: 25.1 ± 1.9 g

— publication PMC10380083, “Synthesis of Prostate-Specific Membrane Antigen-Targeted Bimodal Conjugates of Cytotoxic Agents and Antiandrogens and Their Comparative Assessment with Monoconjugates” (International Journal of Molecular Sciences, 2023)
